37 compounds from patent US9090593B2, “Bicyclic compounds as Pim inhibitors” (AMGEN INC., priority 2010, dated 2015) can be followed below.

Read-outs that look alike come from different tables or passages of the source. A value given as a limit tells only on which side of the number the result lay.

Assay [1] concerns the target T1, full length recombinant Pim-2 protein (Homo sapiens, UniProt Q9P1W9).
T1 construct: by full length recombinant Pim-1, Pim-2, or Pim-3 protein; hexahistidine tag followed by a thrombin cleavage site (N); made in house; host or cells: Sf9 (baculovirus) or E. coli (pET28)
The assay can be described thus: Pim-2 enzyme assay (HTRF, phosphorylation of biotinylated-BAD (S112) peptide). The class given is biochemical. An excerpt:
(§1) These cDNAs were used as templates in PCR reactions to produce full-length DNA clones of the PIMs. […] PCR products were digested with […] and EcoRI for Pim-1 and BamHI and EcoRI for Pim-2 and ligated into a modified baculovirus transfer vector (pFastBac1) cleaved with BamHI and EcoRI. For bacterial expression, the same cleaved PCR products encoding Pim-1 or Pim-2 were ligated into a modified E. coli expression vector pET28(a) cleaved with BamHI and EcoRI Amino-terminal hexahistidine tags followed by a thrombin cleavage site were previously added to the vectors using standard methods of molecular biology. Recombinant baculoviruses expressing Pim-1 or Pim-2 were made using standard methods (Fastbac manual, Invitrogen, Carlsbad, Calif.). Infection of Sf9 cells was done at an m.o.i. of greater than 5 for 24-48 h. Cells were harvested by centrifugation and frozen at −80 C. For E. coli expression, cells carrying pET28-His6-Th-Pim-1 or pET28-His6-Th-Pim-2 were picked from a single colony and grown o/n in LB media. The o/n culture was used to inoculate a 2 liter flask with 500 mL media. This was grown o/n and used to inoculate 15-20 liters of Terrific Broth in a New Brunswick Scientific fermentor. The E. coli were grown at 37° C. to and OD600>1.6. The temperature was dropped to 18° C. and o/n expression was induced with 0.5 mM IPTG. Cells were harvested by centrifugation and frozen at −80° C.
(§2) This step was repeated 3× and the resin was transferred to a 2.5 cm glass column. Ten column volumes of wash buffer (0.05 M HEPES, pH 8.0, 0.1 M NaCl, 0.01 M 2-mercaptoethanol, 10% (w/v) glycerol) were applied to the resin followed by 10 column volumes of elution buffer (0.05 M HEPES, pH 8.0, 0.25 M NaCl, 0.01 M 2-mercaptoethanol, 10% (w/v) glycerol, 0.1 M imidazole). Fractions were analyzed by SDS-PAGE and those containing the protein of interest were pooled and concentrated. The concentrated protein was applied to an Amersham Superdex 75 (XK 26/60) column equilibrated in 0.025 M Tris-HCl, pH 7.5, 0.1 M NaCl, 0.01 M 2-mercaptoethanol, 10% (w/v) glycerol. […] Fractions containing the monomeric protein of interest were pooled, concentrated to ˜2 mg/mL, and stored at −80° C.
(§3) The phosphorylation of biotinylated-BAD (S112) peptide by full length recombinant Pim-1, Pim-2, or Pim-3 protein was detected with streptavidin:Allophycocyanin (APC) conjugate and a europium (Eu) labeled antibody directed against phosphorylated-BAD (S112). […] The fluorescence is directly proportional to the amount of phosphorylated BAD peptide present in the reaction.
(§4) A reference compound was included on each assay plate in order to validate that plate; on one plate of every assay run, two additional reference compounds were included.
(§5) The final buffer conditions were as follows: 60 mM Hepes, pH 7.0, 0.05% BSA, 2 mM DTT. […] The reaction was stopped by the addition of 3 mM EDTA, and fluorescence was measured by an HTRF® Rubystar microplate reader. For each plate, percent of control (POC) values were calculated for each well. Values for the IC50 IP were estimated using a standard 4-parameter logistic model.
A general note: TR-FRET usually uses a lanthanide donor and a delayed reading to cut background.

Assay [2] has as its target T2, full length recombinant Pim-1 protein (Homo sapiens, UniProt P11309).
T2 construct: by full length recombinant Pim-1, Pim-2, or Pim-3 protein; hexahistidine tag followed by a thrombin cleavage site (N); made in house; host or cells: Sf9 (baculovirus) or E. coli (pET28)
Description: Pim-1 enzyme assay (HTRF, phosphorylation of biotinylated-BAD (S112) peptide). Type of assay: biochemical. Particulars: read-out: Pim_1_IC50.
Description: as §1, §2, §3, §4, §5

T2 sequence (P11309 whole entry): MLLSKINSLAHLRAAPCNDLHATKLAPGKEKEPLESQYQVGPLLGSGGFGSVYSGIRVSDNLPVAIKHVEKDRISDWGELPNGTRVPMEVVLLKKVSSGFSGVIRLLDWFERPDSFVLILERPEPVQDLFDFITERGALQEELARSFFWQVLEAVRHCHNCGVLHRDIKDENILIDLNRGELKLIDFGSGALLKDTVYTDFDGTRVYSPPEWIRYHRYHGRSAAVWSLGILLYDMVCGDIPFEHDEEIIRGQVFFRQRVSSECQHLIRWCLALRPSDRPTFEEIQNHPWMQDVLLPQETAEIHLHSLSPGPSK
T1 sequence (Q9P1W9 whole entry): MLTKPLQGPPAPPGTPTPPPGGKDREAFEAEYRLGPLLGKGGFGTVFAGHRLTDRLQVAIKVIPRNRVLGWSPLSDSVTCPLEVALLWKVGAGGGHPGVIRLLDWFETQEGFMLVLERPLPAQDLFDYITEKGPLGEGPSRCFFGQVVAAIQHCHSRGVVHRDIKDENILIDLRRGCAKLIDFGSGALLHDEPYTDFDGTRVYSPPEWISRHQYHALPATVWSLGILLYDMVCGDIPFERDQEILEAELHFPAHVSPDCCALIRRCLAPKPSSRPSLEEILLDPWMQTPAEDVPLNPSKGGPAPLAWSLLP

Regarding `COc1cncc(-c2n[nH]c3ccc(-c4nccc(C(C)C)n4)cc23)n1` [Example 377], the figures for the IC50 in assay [1] (read-out: Pim2_IC50) and in assay [2] were 0.231 µM and 55 nM, respectively.
Take `CC(C)Oc1cncc(-c2ccc3[nH]cc(-c4nnc(Nc5ccccc5)o4)c3c2)n1` [Example 523]: the IC50 in assay [1] (read-out: Pim2_IC50) was above 1 µM; in assay [2] it was 359 nM.
Take `Brc1ccc2[nH]nc(-c3cncc(O[C@H]4CNCCC45CC5)n3)c2c1` [Example 422]: the IC50 was 0.082 µM in assay [1] (read-out: Pim2_IC50) and 22 nM in assay [2].
Take `Cn1nccc1-c1ccc2[nH]nc(-c3cncc(O[C@@H]4CCCNC4)n3)c2c1` [Example 375]: the IC50 in assay [1] (read-out: Pim2_IC50) was 0.243 µM; in assay [2] it was 75 nM.
Consider `N#Cc1ccc2[nH]nc(-c3cncc(N[C@@H]4CCCNC4)n3)c2c1` [Example 540], for which the values for the IC50 in assay [1] (read-out: Pim2_IC50) and in assay [2] were 0.396 µM and 70 nM, respectively.
Turning to `CCNC(=O)c1ccc(C)c(-c2ccc3[nH]cc(-c4cncc(O[C@@H]5CCCNC5)n4)c3c2)c1` [Example 313], the IC50 in assay [1] (read-out: Pim2_IC50) came to 0.515 µM; in assay [2], 234 nM.
Regarding `O[C@@H]1CN(c2cncc(-c3n[nH]c4ccc(-c5c(F)cccc5F)cc34)n2)CC[C@@H]1O` (single isomer, unassigned) [Example 249, cis-1-(6-(5-(2,6-difluorophenyl)-1H-indazol-3-yl)-2-pyrazinyl)-3,4-piperidinediol], the IC50 in assay [1] (read-out: Pim2_IC50) was found to be 0.269 µM; in assay [2] it was 32 nM.
For `COc1cc(C#N)c(-c2ccc3[nH]cc(-c4cncc(O[C@@H]5CCCNC5)n4)c3c2)cc1OC(C)C` [Example 342] the same measures were above 1 µM and 159 nM.
As for `O=C(O)c1ccc2[nH]cc(-c3nccc(N[C@@H]4CCCNC4)n3)c2c1` [Example 539], the IC50 in assay [1] (read-out: Pim2_IC50) is above 1 µM; in assay [2], 834 nM.
In the case of `O=C1COCCN1c1ccc2[nH]nc(-c3cncc(O[C@H]4CNCCC45CC5)n3)c2c1` [Example 405], the results for the IC50 in assay [1] (read-out: Pim2_IC50) and in assay [2] were 0.447 µM and 159 nM, respectively.
Turning to `c1ccc(Nc2ccc3[nH]nc(-c4cncc(O[C@H]5CNCCC56CC6)n4)c3c2)cc1` [Example 251, 3-(6-((4R)-6-azaspiro[25]oct-4-yloxy)-2-pyrazinyl)-N-phenyl-1H-indazol-5-amine bis(2,2,2-trifluoroacetate)], the figures for the IC50 in assay [1] (read-out: Pim2_IC50) and in assay [2] were 0.039 µM and 4 nM, respectively.
Regarding `CC(C)Oc1cncc(-c2ccc3[nH]cc(-c4nnc(NC5CCNCC5)o4)c3c2)n1` [Example 513], the IC50 in assay [1] (read-out: Pim2_IC50) was determined as 0.218 µM; in assay [2], 48 nM.
For `Cn1nccc1-c1ccc2[nH]nc(-c3cncc(O[C@H]4CNCCC45CC5)n3)c2c1` [Example 252, 3-(6-((4R)-6-azaspiro[2.5]oct-4-yloxy)-2-pyrazinyl)-5-(1-methyl-1H-pyrazol-5-yl)-1H-indazole] the same measures were 0.121 µM and 70 nM.
As to `COC(=O)c1ccc2[nH]nc(-c3nccc(O[C@@H]4CCCNC4)n3)c2c1` [Example 498], the results for the IC50 in assay [1] (read-out: Pim2_IC50) and in assay [2] were 0.726 µM and 70 nM, respectively.
For `c1cnn(-c2cnc(-c3ccc4[nH]cc(-c5cncc(O[C@@H]6CCCNC6)n5)c4c3)cn2)c1` [Example 300], the IC50 in assay [1] (read-out: Pim2_IC50) worked out at 0.115 µM; in assay [2], 42 nM.
In the case of `N#Cc1ccc2[nH]nc(-c3cncc(O[C@H]4CNCCC45CC5)n3)c2c1` [Example 254, 3-(6-((4R)-6-azaspiro[2.5]oct-4-yloxy)-2-pyrazinyl)-1H-indazole-5-carbonitrile], the results for the IC50 in assay [1] (Pim2_IC50 (uM)) and in assay [2] were above 1 µM and 364 nM, respectively.
On to `Nc1ncc(-c2ccc3[nH]nc(-c4cncc(O[C@H]5CNCCC56CC6)n4)c3c2)cn1` [Example 464], for which the IC50 in assay [1] (read-out: Pim2_IC50) stood at 0.017 µM; in assay [2], 4 nM.
In the same order, the values of `C[C@@H]1COCCN1c1ccc2[nH]nc(-c3cncc(O[C@H]4CNCCC45CC5)n3)c2c1` [Example 403] are 0.058 µM and 70 nM.
`COc1cc(-c2c[nH]c3ccc(-c4c(F)cccc4F)cc23)nc(N2CCC(N)CC2)n1` [Example 276, 1-(4-(5-(2,6-difluorophenyl)-1H-indol-3-yl)-6-methoxypyrimidin-2-yl)piperidin-4-amine]: the IC50 was 0.929 µM in assay [1] (read-out: Pim2_IC50) and 344 nM in assay [2].
`CNC(=O)c1ccc2[nH]nc(-c3cncc(NC4CCNCC4)n3)c2c1` [Example 471]: the IC50 in assay [1] (read-out: Pim2_IC50) came out at 0.329 µM; in assay [2], 171 nM.
In the same order, the values of `CC(C)Nc1cc(=O)[nH]c(-c2c[nH]c3ccc(-c4c(F)cccc4F)cc23)n1` [Example 499] are above 1 µM and 364 nM.
With `COC(=O)c1ccc2[nH]cc(-c3nccc(N[C@@H]4CCCNC4)n3)c2c1` [Example 531], the IC50 in assay [1] (read-out: Pim2_IC50) was found to be 0.182 µM; in assay [2], 20 nM.
For the compound `c1ncc(-c2ccc3[nH]cc(-c4cncc(O[C@@H]5CCCNC5)n4)c3c2)cc1NC1CC1` [Example 502], the IC50 in assay [1] (read-out: Pim2_IC50) is 0.424 µM; in assay [2], 20 nM.
Take `O=C(O)c1ccc2[nH]cc(-c3cncc(N[C@@H]4CCCNC4)n3)c2c1` [Example 538]: the IC50 was above 1 µM in assay [1] (read-out: Pim2_IC50) and 241 nM in assay [2].
Regarding `CCCCc1nc(-c2n[nH]c3ccc(-c4c(F)cccc4F)cc23)cc(=O)[nH]1` [Example 535], the values for the IC50 in assay [1] (read-out: Pim2_IC50) and in assay [2] were 0.262 µM and 70 nM, respectively.
As to `CN(C)C(=O)c1ccc2[nH]nc(-c3cncc(N[C@@H]4CCCNC4)n3)c2c1` [Example 494], the figures for the IC50 in assay [1] (read-out: Pim2_IC50) and in assay [2] were above 1 µM and 834 nM, respectively.
As for `CN(C)C(=O)c1ccc2[nH]nc(-c3ccnc(N4CCC(N)CC4)n3)c2c1` [Example 284, 3-(2-(4-aminopiperidin-1-yl)pyrimidin-4-yl)-N,N-dimethyl-1H-indazole-5-carboxamide], the IC50 is above 1 µM in assay [1] (read-out: Pim2_IC50) and 839 nM in assay [2].
Consider `CC(=O)Nc1cc(-c2ccc3[nH]cc(-c4cncc(O[C@@H]5CCCNC5)n4)c3c2)cc(C(F)(F)F)c1` [Example 349], for which the IC50 in assay [1] (read-out: Pim2_IC50) is 0.29 µM; in assay [2] it was 30 nM.
For `CC(C)Oc1cncc(-c2n[nH]c3ccc(-c4nccc(N5CCOC[C@@H]5C)n4)cc23)n1` [Example 380] the same measures were above 1 µM and 67 nM.
As for `N#Cc1ccc2[nH]cc(-c3cncc(N[C@@H]4CCCNC4)n3)c2c1` [Example 536], the IC50 in assay [1] (read-out: Pim2_IC50) turned out to be 0.208 µM; in assay [2], 30 nM.
With `COc1cncc(-c2n[nH]c3ccc(-c4cnn(C(C)C)c4)cc23)n1` [Example 388], the IC50 in assay [1] (read-out: Pim2_IC50) came to 0.124 µM; in assay [2], 116 nM.
Consider `COc1cncc(-c2n[nH]c3ccc(-c4nccc(NC5CC5)n4)cc23)n1` [Example 382], for which the IC50 in assay [1] (read-out: Pim2_IC50) stood at 0.335 µM; in assay [2], 50 nM.
Turning to `CNC(=O)c1ccc2[nH]nc(-c3cncc(O[C@@H]4CCCNC4)n3)c2c1` [Example 478], the IC50 in assay [1] (read-out: Pim2_IC50) is above 1 µM; in assay [2] it was 180 nM.
As for `CC(C)Oc1cncc(-c2ccc3[nH]cc(-c4nnc(N5CCCC5)o4)c3c2)n1` [Example 520], the IC50 in assay [1] (read-out: Pim2_IC50) is 0.527 µM; in assay [2], 52 nM.
In the same order, the values of `Nc1ccc(Oc2ncccc2-c2ccc3[nH]cc(-c4cncc(O[C@@H]5CCCNC5)n4)c3c2)cc1` [Example 337] are 0.592 µM and 56 nM.
As to `CC(CO)c1ccc2c(c1)c(-c1cncc(O[C@H]3CNCCC34CC4)n1)nn2C` (stereo partly drawn) [Example 271, 2-(3-(6-((4R)-6-azaspiro[25]oct-4-yloxy)-2-pyrazinyl)-1-methyl-1H-indazol-5-yl)-1-propanol], the IC50 in assay [1] (read-out: Pim2_IC50) was 0.2 µM; in assay [2], 159 nM.
As for `CC(C)Nc1nc(-c2c[nH]c3ccc(-c4c(F)cccc4F)cc23)cc(=O)[nH]1` [Example 500], the IC50 was determined as 0.019 µM in assay [1] (read-out: Pim2_IC50) and 9 nM in assay [2].
